Patent US20150307938A1, “METHOD TO IDENTIFY A NOVEL CLASS OF IMMUNOLOGIC ADJUVANTS” (Lancell, L.L.C., priority 2011, published 2015)

Test system: skin
Assay: Affymetrix microarray of skin, DBP-4 hr and analogs vs. untreated; gene selection by log-2 fold change, Wilcoxon, Kendall tau (Tables 8, 9)
Type: in vivo, mouse

SMILES: CCCCOC(=O)c1ccccc1C(=O)OCCCC [DBP, dibutylphthalate]
- Kendall: Dda1 (gene Dda1, NM_025600_at, gene expression vs. output): Yes
- Wilcoxon: Diablo (gene Diablo, NM_023232_at, DBP-4 hr vs. untreated): No
- Kendall: Diablo (gene Diablo, NM_023232_at, gene expression vs. output): Yes
- Wilcoxon: Dmap1 (gene Dmap1, NM_023178_at, DBP-4 hr vs. untreated): No
- Kendall: Dmap1 (gene Dmap1, NM_023178_at, gene expression vs. output): Yes
- Wilcoxon: Dnajc4 (gene Dnajc4, NM_020566_at, DBP-4 hr vs. untreated): No
- Kendall: Dnajc4 (gene Dnajc4, NM_020566_at, gene expression vs. output): Yes
- Wilcoxon: Eid1 (gene Eid1, NM_025613_at, DBP-4 hr vs. untreated): No
- Kendall: Eid1 (gene Eid1, NM_025613_at, gene expression vs. output): Yes
- Wilcoxon: Eif6 (gene Eif6, NM_010579_at, DBP-4 hr vs. untreated): No
- Kendall: Eif6 (gene Eif6, NM_010579_at, gene expression vs. output): Yes
- Wilcoxon: Erlec1 (gene Erlec1, NM_025745_at, DBP-4 hr vs. untreated): No
- Kendall: Erlec1 (gene Erlec1, NM_025745_at, gene expression vs. output): Yes
- Wilcoxon: Fam134b (gene Fam134b, NM_025459_at, DBP-4 hr vs. untreated): No
- Kendall: Fam134b (gene Fam134b, NM_025459_at, gene expression vs. output): Yes
- Wilcoxon: Fbxo25 (gene Fbxo25, NM_025785_at, DBP-4 hr vs. untreated): No
- Kendall: Fbxo25 (gene Fbxo25, NM_025785_at, gene expression vs. output): Yes
- Wilcoxon: Fgf13 (gene Fgf13, NM_010200_at, DBP-4 hr vs. untreated): No
- Kendall: Fgf13 (gene Fgf13, NM_010200_at, gene expression vs. output): Yes
- Wilcoxon: Flt1 (gene Flt1, NM_010228_at, DBP-4 hr vs. untreated): No
- Kendall: Flt1 (gene Flt1, NM_010228_at, gene expression vs. output): Yes
- Wilcoxon: Fmo5 (gene Fmo5, NM_010232_at, DBP-4 hr vs. untreated): No
- Kendall: Fmo5 (gene Fmo5, NM_010232_at, gene expression vs. output): Yes
- Wilcoxon: Ftsj3 (gene Ftsj3, NM_025310_at, DBP-4 hr vs. untreated): No
- Kendall: Ftsj3 (gene Ftsj3, NM_025310_at, gene expression vs. output): Yes
- Wilcoxon: Gcnt2 (gene Gcnt2, NM_023887_at, DBP-4 hr vs. untreated): No
- Kendall: Gcnt2 (gene Gcnt2, NM_023887_at, gene expression vs. output): Yes
- Wilcoxon: Gmcl1 (gene Gmcl1, NM_011818_at, DBP-4 hr vs. untreated): No
- Kendall: Gmcl1 (gene Gmcl1, NM_011818_at, gene expression vs. output): Yes
- Wilcoxon: Gpn3 (gene Gpn3, NM_024216_at, DBP-4 hr vs. untreated): No
- Kendall: Gpn3 (gene Gpn3, NM_024216_at, gene expression vs. output): Yes
- Wilcoxon: Gstz1 (gene Gstz1, NM_010363_at, DBP-4 hr vs. untreated): No
- Kendall: Gstz1 (gene Gstz1, NM_010363_at, gene expression vs. output): Yes
- Wilcoxon: Gtf2h2 (gene Gtf2h2, NM_022011_at, DBP-4 hr vs. untreated): No
- Kendall: Gtf2h2 (gene Gtf2h2, NM_022011_at, gene expression vs. output): Yes
- Wilcoxon: Gtf3a (gene Gtf3a, NM_025652_at, DBP-4 hr vs. untreated): No
- Kendall: Gtf3a (gene Gtf3a, NM_025652_at, gene expression vs. output): Yes
- Wilcoxon: Hsdl2 (gene Hsdl2, NM_024255_at, DBP-4 hr vs. untreated): No
- Kendall: Hsdl2 (gene Hsdl2, NM_024255_at, gene expression vs. output): Yes
- Wilcoxon: Icos (gene Icos, NM_017480_at, DBP-4 hr vs. untreated): No
- Kendall: Icos (gene Icos, NM_017480_at, gene expression vs. output): Yes
- Wilcoxon: Ifngr1 (gene Ifngr1, NM_010511_at, DBP-4 hr vs. untreated): No
- Kendall: Ifngr1 (gene Ifngr1, NM_010511_at, gene expression vs. output): Yes
- Wilcoxon: Inpp5d (gene Inpp5d, NM_010566_at, DBP-4 hr vs. untreated): No
- Kendall: Inpp5d (gene Inpp5d, NM_010566_at, gene expression vs. output): Yes
- Wilcoxon: Itgax (gene Itgax, NM_021334_at, DBP-4 hr vs. untreated): No
- Kendall: Itgax (gene Itgax, NM_021334_at, gene expression vs. output): Yes
- Wilcoxon: Itk (gene Itk, NM_010583_at, DBP-4 hr vs. untreated): No
- Kendall: Itk (gene Itk, NM_010583_at, gene expression vs. output): Yes
- Wilcoxon: Krt17 (gene Krt17, NM_010663_at, DBP-4 hr vs. untreated): No
- Kendall: Krt17 (gene Krt17, NM_010663_at, gene expression vs. output): Yes
- Wilcoxon: Map3k14 (gene Map3k14, NM_016896_at, DBP-4 hr vs. untreated): No
- Kendall: Map3k14 (gene Map3k14, NM_016896_at, gene expression vs. output): Yes
- Wilcoxon: Mdp1 (gene Mdp1, NM_023397_at, DBP-4 hr vs. untreated): No
- Kendall: Mdp1 (gene Mdp1, NM_023397_at, gene expression vs. output): Yes
- Wilcoxon: Meis1 (gene Meis1, NM_010789_at, DBP-4 hr vs. untreated): No
- Kendall: Meis1 (gene Meis1, NM_010789_at, gene expression vs. output): Yes
- Wilcoxon: Mkrn3 (gene Mkrn3, NM_011746_at, DBP-4 hr vs. untreated): No
- Kendall: Mkrn3 (gene Mkrn3, NM_011746_at, gene expression vs. output): Yes
- Wilcoxon: Mtcp1 (gene Mtcp1, NM_010839_at, DBP-4 hr vs. untreated): No
- Kendall: Mtcp1 (gene Mtcp1, NM_010839_at, gene expression vs. output): Yes
- Wilcoxon: Mum1 (gene Mum1, NM_023431_at, DBP-4 hr vs. untreated): No
- Kendall: Mum1 (gene Mum1, NM_023431_at, gene expression vs. output): Yes
- Wilcoxon: Myd88 (gene Myd88, NM_010851_at, DBP-4 hr vs. untreated): No
- Kendall: Myd88 (gene Myd88, NM_010851_at, gene expression vs. output): Yes
- Wilcoxon: Nagk (gene Nagk, NM_019542_at, DBP-4 hr vs. untreated): No
- Kendall: Nagk (gene Nagk, NM_019542_at, gene expression vs. output): Yes
- Wilcoxon: Ndufaf3 (gene Ndufaf3, NM_023247_at, DBP-4 hr vs. untreated): No
- Kendall: Ndufaf3 (gene Ndufaf3, NM_023247_at, gene expression vs. output): Yes
- Wilcoxon: Nek3 (gene Nek3, NM_011848_at, DBP-4 hr vs. untreated): No
- Kendall: Nek3 (gene Nek3, NM_011848_at, gene expression vs. output): Yes
- Wilcoxon: Nfkb2 (gene Nfkb2, NM_019408_at, DBP-4 hr vs. untreated): No
- Kendall: Nfkb2 (gene Nfkb2, NM_019408_at, gene expression vs. output): Yes
- Wilcoxon: Nicn1 (gene Nicn1, NM_025449_at, DBP-4 hr vs. untreated): No
- Kendall: Nicn1 (gene Nicn1, NM_025449_at, gene expression vs. output): Yes
- Wilcoxon: Nme3 (gene Nme3, NM_019730_at, DBP-4 hr vs. untreated): No
- Kendall: Nme3 (gene Nme3, NM_019730_at, gene expression vs. output): Yes
- Wilcoxon: Ntpcr (gene Ntpcr, NM_025636_at, DBP-4 hr vs. untreated): No
- Kendall: Ntpcr (gene Ntpcr, NM_025636_at, gene expression vs. output): Yes
- Wilcoxon: Orc3 (gene Orc3, NM_015824_at, DBP-4 hr vs. untreated): No
- Kendall: Orc3 (gene Orc3, NM_015824_at, gene expression vs. output): Yes
- Wilcoxon: Padi1 (gene Padi1, NM_011059_at, DBP-4 hr vs. untreated): No
- Kendall: Padi1 (gene Padi1, NM_011059_at, gene expression vs. output): Yes
- Wilcoxon: Panx1 (gene Panx1, NM_019482_at, DBP-4 hr vs. untreated): No
- Kendall: Panx1 (gene Panx1, NM_019482_at, gene expression vs. output): Yes
- Wilcoxon: Pfdn2 (gene Pfdn2, NM_011070_at, DBP-4 hr vs. untreated): No
- Kendall: Pfdn2 (gene Pfdn2, NM_011070_at, gene expression vs. output): Yes
- Wilcoxon: Phtf1 (gene Phtf1, NM_013629_at, DBP-4 hr vs. untreated): No
- Kendall: Phtf1 (gene Phtf1, NM_013629_at, gene expression vs. output): Yes
